In brackets after ≈: the same amount, converted by molar mass. Counter-ions that a name gives are not always drawn. Like-named read-outs stand apart in the source and are kept apart here.
Legend:
TEM-1 = biological target: T1, TEM-1 (Escherichia coli, UniProt P62593); test: β-lactamase inhibitory activity, spectrophotometric rate assay with nitrocefin; type: biochemical; conditions: TEM-1 isolated from E. coli; nitrocefin substrate; read-out: 50% Inhibitory conc. TEM-1
T1 construct: TEM-1 (isolated from E. coli); endogenous in cells; host or cells: E. coli (enzyme isolated from the bacterium)
Method: (§1) The inhibitory activities of present compounds against TEM-1 (isolated from E. coli), CTX-1 (isolated from K. pneumoniae), cephalosporinase (isolated from P. aeruginoase 46012) was measured by spectrophotometric rate assay using […] and using nitrocefin as a substrate [J. Antimicrob. Chemother., 28, pp. 775-776 (1991)].

cephalosporinase = biological target: T2, cephalosporinase (Pseudomonas aeruginosa, UniProt P24735); test: as above; type: biochemical; conditions: cephalosporinase isolated from P. aeruginoase 46012; nitrocefin substrate; read-out: 50% Inhibitory conc. Cephalosporinase
T2 construct: nitrocefin spectrophotometric assay
Method: as §1

M. morganii 36014 = test: MIC, agar dilution method; conditions: Morganella morganii, 36014, 18 h
E. aerogenes 41006 = test: MIC, agar dilution method; conditions: Klebsiella aerogenes, 41006, 18 h, read-out: MIC Ceftazidime (Alone)
E. aerogenes 41003 = test: MIC, agar dilution method; conditions: Klebsiella aerogenes, 41003, 18 h, read-out: MIC Ceftazidime (Alone)
K. pneumoniae CTX1 = test: MIC, agar dilution method; conditions: Klebsiella pneumoniae, CTX1, 18 h
E. cloacae P99 = test: MIC, agar dilution method; conditions: Enterobacter cloacae, P99, 18 h
P. aeruginosa L 46003 = test: MIC, agar dilution method; conditions: Pseudomonas aeruginosa, L46003, 18 h, read-out: MIC Ceftazidime (Alone)
E. cloacae E. 40009 = test: MIC, agar dilution method; conditions: Enterobacter cloacae, E.40009, 18 h, read-out: MIC Ceftazidime (Alone)
M. morganii 36010 = test: MIC, agar dilution method; conditions: Morganella morganii, 36010, 18 h
E. coli TEM 7 = test: MIC, agar dilution method; conditions: Escherichia coli, TEM7, 18 h
E. coli TEM 3 = test: MIC, agar dilution method; conditions: Escherichia coli, TEM3, 18 h
P. aeruginosa 46220 DR-2 = test: MIC, agar dilution method; conditions: Pseudomonas aeruginosa, 46220DR2, 18 h, read-out: MIC Ceftazidime (Alone)
E. cloacae 40011 = test: MIC, agar dilution method; conditions: Enterobacter cloacae, 40011, 18 h
E. aerogenes 41004 = test: MIC, agar dilution method; conditions: Klebsiella aerogenes, 41004, 18 h
E. aerogenes = test: MIC, agar dilution method; conditions: Klebsiella aerogenes, 18 h, read-out: MIC Piperacillin Alone
E. coli OXA 1 = test: MIC, agar dilution method; conditions: Escherichia coli, OXA1, 18 h, read-out: MIC Piperacillin Alone
E. cloacae E. 4009 = test: MIC, agar dilution method; conditions: Enterobacter cloacae, E.4009, 18 h, read-out: MIC Piperacillin Alone
S. aureus 80K = test: MIC, agar dilution method; conditions: Staphylococcus aureus, 18 h, read-out: MIC Piperacillin Alone
E. coli TEM 1 = test: MIC, agar dilution method; conditions: Escherichia coli, TEM1, 18 h, read-out: MIC Piperacillin Alone
P. vulgaris CT106 = test: MIC, agar dilution method; conditions: Proteus vulgaris, CT106, 18 h, read-out: MIC Piperacillin Alone
S. aureus 54K = test: MIC, agar dilution method; conditions: Staphylococcus aureus, 18 h, read-out: MIC Piperacillin Alone
A. calcoaceticus 553L = test: MIC, agar dilution method; conditions: Acinetobacter calcoaceticus, 18 h, read-out: MIC Piperacillin Alone
S. marcescens 200L = test: MIC, agar dilution method; conditions: Serratia marcescens, 18 h, read-out: MIC Piperacillin Alone
C. freundii 2046E = test: MIC, agar dilution method; conditions: Citrobacter freundii, 18 h, read-out: MIC Piperacillin Alone
K. pneumoniae 336L = test: MIC, agar dilution method; conditions: Klebsiella pneumoniae, 18 h, read-out: MIC Piperacillin Alone
E. coli SHV 1 = test: MIC, agar dilution method; conditions: Escherichia coli, SHV1, 18 h, read-out: MIC Piperacillin Alone
E. cloacae 40015 = test: MIC, agar dilution method; conditions: Enterobacter cloacae, 40015, 18 h, read-out: MIC Piperacillin Alone
S. aureus 1628 = test: MIC, agar dilution method; conditions: Staphylococcus aureus, 1628, 18 h, read-out: MIC Piperacillin Alone
E. coli OXA 3 = test: MIC, agar dilution method; conditions: Escherichia coli, OXA3, 18 h, read-out: MIC Piperacillin Alone
P. aeruginosa L 46007 = test: MIC, agar dilution method; conditions: Pseudomonas aeruginosa, L46007, 18 h, read-out: MIC Piperacillin Alone
[1] = read-out: MIC Ceftazidime (Alone)
[2] = read-out: MIC Piperacillin Alone

T2 sequence (P24735 27-397): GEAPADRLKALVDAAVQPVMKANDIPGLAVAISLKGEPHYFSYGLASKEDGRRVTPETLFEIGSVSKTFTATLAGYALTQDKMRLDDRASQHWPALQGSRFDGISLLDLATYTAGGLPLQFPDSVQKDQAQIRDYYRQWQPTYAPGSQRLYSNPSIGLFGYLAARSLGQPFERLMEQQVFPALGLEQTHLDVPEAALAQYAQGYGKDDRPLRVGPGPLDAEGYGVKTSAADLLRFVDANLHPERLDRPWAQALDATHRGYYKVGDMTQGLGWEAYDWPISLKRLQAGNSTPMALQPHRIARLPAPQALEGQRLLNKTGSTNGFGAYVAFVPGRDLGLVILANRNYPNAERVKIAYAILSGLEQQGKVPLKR
T1 sequence (P62593 24-286 limits assumed): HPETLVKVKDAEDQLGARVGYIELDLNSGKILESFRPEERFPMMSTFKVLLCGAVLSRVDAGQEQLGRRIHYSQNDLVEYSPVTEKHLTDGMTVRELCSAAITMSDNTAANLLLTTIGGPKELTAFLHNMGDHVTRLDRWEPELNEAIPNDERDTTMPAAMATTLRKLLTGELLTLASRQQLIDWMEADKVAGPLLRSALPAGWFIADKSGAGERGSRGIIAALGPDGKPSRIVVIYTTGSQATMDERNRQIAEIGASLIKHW

CCCON=C[C@@]1(C)[C@H](C(=O)O)N2C(=O)C[C@H]2S1(=O)=O [Compound 8, sodium (2S, 3R, 5R)-3-formyl-3-methyl-7-oxo-4-thia-1-azabicyclo[3.2.0]heptane-2-carboxylate, 3^1-(O-propyloxime), 4,4-dioxide]
IC50 (TEM-1): 100 nM | IC50 (cephalosporinase): 1000 nM

C[C@]1(C=NOCC(=O)O)[C@H](C(=O)O)N2C(=O)C[C@H]2S1(=O)=O [Compound 28, (2S, 3R, 5R)-3-formyl-3-methyl-7-oxo-4-thia-1-azabicyclo[3.2.0]heptane-2-carboxylicacid, 3^1-[O-(carboxymethyl)oxime], disodium salt, 4,4-dioxide]
IC50 (TEM-1): 4.8 nM | IC50 (cephalosporinase): 1000 nM

CC(C)(O/N=C(\C(=O)N[C@@H]1C(=O)N2C(C(=O)[O-])=C(C[n+]3ccccc3)CS[C@H]12)c1csc(N)n1)C(=O)O [Ceftazidime, ceftazidime]
MIC (M. morganii 36014; [1]): 25 µg/mL (≈ 45.7 µM) | MIC (E. aerogenes 41006): 100 µg/mL (≈ 183 µM) | MIC (E. aerogenes 41003): 25 µg/mL (≈ 45.7 µM) | MIC (K. pneumoniae CTX1; [1]): 100 µg/mL (≈ 183 µM) | MIC (E. cloacae P99; [1]): 100 µg/mL (≈ 183 µM) | MIC (P. aeruginosa L 46003): 200 µg/mL (≈ 366 µM) | MIC (E. cloacae E. 40009): 100 µg/mL (≈ 183 µM) | MIC (M. morganii 36010; [1]): 200 µg/mL (≈ 366 µM) | MIC (E. coli TEM 7; [1]): 25 µg/mL (≈ 45.7 µM) | MIC (E. coli TEM 3; [1]): 25 µg/mL (≈ 45.7 µM) | MIC (P. aeruginosa 46220 DR-2): 25 µg/mL (≈ 45.7 µM) | MIC (E. cloacae 40011; [1]): 50 µg/mL (≈ 91.5 µM) | MIC (E. aerogenes 41004; [1]): 25 µg/mL (≈ 45.7 µM)

CC(=O)NN=C[C@@]1(C)[C@H](C(=O)O)N2C(=O)C[C@H]2S1(=O)=O [Compound 38, sodium (2S, 3R, 5R)-3-formyl-3-methyl-7-oxo-4-thia-1-azabicyclo[3.2.0]heptane-2-carboxylate, 3^1-(acetylhydrazone), 4,4-dioxide]
IC50 (TEM-1): 1.4 nM | IC50 (cephalosporinase): 600 nM

CCON=C[C@@]1(C)[C@H](C(=O)O)N2C(=O)C[C@H]2S1(=O)=O [Compound 10, sodium (2S, 3R, 5R]-3-formyl-3-methyl-7-oxo-4-thia-1-azabicyclo[3.2.0]heptane-2-carboxylate, 3^1-(O-ethyloxime), 4,4-dioxide]
IC50 (TEM-1): 500 nM | IC50 (cephalosporinase): 1000 nM

CCN1CCN(C(=O)N[C@@H](C(=O)N[C@@H]2C(=O)N3[C@@H]2SC(C)(C)[C@@H]3C(=O)O)c2ccccc2)C(=O)C1=O [Piperacillin, piperacillin]
MIC (M. morganii 36014; [2]): 50 µg/mL (≈ 96.6 µM) | MIC (E. aerogenes): 25 µg/mL (≈ 48.3 µM) | MIC (E. coli OXA 1): 25 µg/mL (≈ 48.3 µM) | MIC (E. cloacae E. 4009): 100 µg/mL (≈ 193 µM) | MIC (S. aureus 80K): 12.5 µg/mL (≈ 24.2 µM) | MIC (E. coli TEM 1): 400 µg/mL (≈ 773 µM) | MIC (P. vulgaris CT106): 400 µg/mL (≈ 773 µM) | MIC (K. pneumoniae CTX1; [2]): > 40 µg/mL | MIC (E. cloacae P99; [2]): 200 µg/mL (≈ 386 µM) | MIC (S. aureus 54K): 12.5 µg/mL (≈ 24.2 µM) | MIC (A. calcoaceticus 553L): > 400 µg/mL | MIC (S. marcescens 200L): 100 µg/mL (≈ 193 µM) | MIC (C. freundii 2046E): 100 µg/mL (≈ 193 µM) | MIC (K. pneumoniae 336L): 200 µg/mL (≈ 386 µM) | MIC (E. coli SHV 1): 50 µg/mL (≈ 96.6 µM) | MIC (M. morganii 36010; [2]): 200 µg/mL (≈ 386 µM) | MIC (E. coli TEM 7; [2]): 100 µg/mL (≈ 193 µM) | MIC (E. coli TEM 3; [2]): 100 µg/mL (≈ 193 µM) | MIC (E. cloacae 40015): 50 µg/mL (≈ 96.6 µM) | MIC (S. aureus 1628): 400 µg/mL (≈ 773 µM) | MIC (E. coli OXA 3): 3.13 µg/mL (≈ 6.05 µM) | MIC (E. cloacae 40011; [2]): 50 µg/mL (≈ 96.6 µM) | MIC (E. aerogenes 41004; [2]): 25 µg/mL (≈ 48.3 µM) | MIC (P. aeruginosa L 46007): 100 µg/mL (≈ 193 µM)

CON=C[C@@]1(C)[C@H](C(=O)O)N2C(=O)C[C@H]2S1(=O)=O [Compound 3, sodium (2S, 3R, 5R)-3-formyl-3-methyl-7-oxo-4-thia-1-azabicyclo[3.2.0]heptane-2-carboxylate, 3^1-(O-methyloxime), 4,4-dioxide]
IC50 (TEM-1): 300 nM | IC50 (cephalosporinase): 1900 nM

C[C@]1(C=NO)[C@H](C(=O)O)N2C(=O)C[C@H]2S1(=O)=O [Compound 5, sodium (2S, 3R, 5R)-3-formyl-3-methyl-7-oxo-4-thia-1-azabicyclo[3.2.0]heptane-2-carboxylate, 3^1-(hydroxyloxime), 4,4-dioxide]
IC50 (TEM-1): 580 nM | IC50 (cephalosporinase): 7000 nM
